Test results as given in PubChem BioAssay AID1159563 (GlaxoSmithKline (GSK), 2015).
Calls of active or inactive are those of the source. The rule behind the calls is not given here.

system: HepG2 cytotoxicity; assay: human hepatoma cell viability loss – cytotoxicity control (AID 1159563)

| Structure (SMILES) | IC50 |
| --- | --- |
| CCOc1ccc(CN(C)Cc2nc(N)nc(Nc3ccc(C)cc3)n2)cc1 | 32 µM |
| CS(=O)(=O)c1ccc(Nc2nccc(Nc3n[nH]c4ccc(F)cc34)n2)c(F)c1 | 79 µM |
| COc1ccc(CN(C)Cc2ccncc2)cc1-c1ccc(S(=O)(=O)NC2CCC2)s1 | > 100 µM (inactive) |
| CCn1c(NC(=O)Cc2ccc(F)cc2)nc2ccccc21 | > 100 µM (inactive) |
| CCCN(Cc1ccc(OC)c(OC)c1)Cc1cc(=O)c2c(C)cc(C)cc2[nH]1 | 63 µM |
| COc1ccc2nc(N(Cc3cccnc3)C(=O)C3CCC3)sc2c1 | > 100 µM (inactive) |
| COc1ccc(OC)c(NC(=O)c2ccc([N+](=O)[O-])o2)c1 | 20 µM |
| CCOc1cnn(C)c(=O)c1Nc1ccc(C(=O)NCc2ccc(F)cc2)cc1 | > 100 µM (inactive) |
| CCC(=O)Nc1ccc(C(=O)Nc2ccccc2-c2ccccc2)cc1 | > 100 µM (inactive) |
| COCc1cc(Nc2cccc(Cl)c2)nc(-c2ccccn2)n1 | 40 µM |
| COc1ccc2ncc(F)c(CCN3CC[C@@H](NC(=O)c4cc5c(s4)CCC5)[C@@H](O)C3)c2n1 | 50 µM |
| COc1ccc(C(=O)[C@H]2C[C@@H]2CN(Cc2ccccn2)Cc2ccccn2)cc1 | > 100 µM (inactive) |
| COc1ccc(C2=NCC(CSc3nnc(-c4ccc5c(c4)OCO5)o3)S2)cc1 (stereo unspecified) | > 100 µM (inactive) |
| COc1ccc(C2CC(c3ccccc3Cl)=NN2C(=O)CNC(=O)C2CCC2)cc1 (stereo unspecified) | > 100 µM (inactive) |
| COC(=O)c1ccc(-c2cnc3ccc(NCc4ccccn4)nn23)cc1 | 100 µM |
| O=C(CN(Cc1ccccn1)Cc1ccccn1)NC1Cc2ccccc2C1 | > 160 µM (inactive) |
| O=c1ccc2ccc(F)c3c2n1C[C@H]3CN1CCN(CC(O)c2cc3c(cn2)OCS3)CC1 (stereo partly specified) | > 100 µM (inactive) |
| CC(C)c1cc(C(=O)N2CCCC(c3cc4ncccc4[nH]3)C2)on1 (stereo unspecified) | > 100 µM (inactive) |
| CCn1c(-c2nonc2N)nc2c([C@@H](C)O)ncc(O[C@H](CN)c3ccccc3)c21 | 79 µM |
| CN(Cc1cc2ccccc2s1)c1ncc2c(N)nc(N)nc2n1 | 40 µM |
| O=C(Nc1ccc(C(F)(F)F)cc1)Nc1cccc([N+](=O)[O-])c1 | 10 µM |
| Cc1ccc(NC(=O)C(C)n2nc([N+](=O)[O-])c(Br)c2C)cc1Cl (stereo unspecified) | 79 µM |
| CC(C)(C)C(=O)NCCc1csc(-c2ccc(F)cc2)n1 | > 100 µM (inactive) |
| COc1ccc(CN2C(=O)C(O)(CC(=O)c3ccncc3)c3cc(Br)ccc32)cc1OC (stereo unspecified) | 40 µM |
| O=C(NCCc1csc(-c2ccc(F)cc2)n1)c1cccs1 | > 100 µM (inactive) |
| O=S(=O)(c1ccccc1C(F)(F)F)N1CCN(Cc2ccc(-n3ccnc3)cc2)CC1 | > 100 µM (inactive) |

| Structure (SMILES) | IC50 |
| --- | --- |
| COc1ccc(NS(=O)(=O)c2cc(NC(=O)c3ccc([N+](=O)[O-])s3)ccc2OC)cc1 | > 100 µM (inactive) |
| COc1cccc(C(=O)[C@H]2C[C@@H]2CN(Cc2cccnc2)Cc2cccnc2)c1 | > 100 µM (inactive) |
| COc1ccc(NC(=O)c2ccc(NC(=O)CN(c3ccccc3C)S(C)(=O)=O)cc2)cc1 | 40 µM |
| c1ccc(CCNCc2cncc3nc(-c4cnccn4)n(C4CCCCC4)c23)cc1 | > 100 µM (inactive) |
| CNC(=O)C1Cc2ccccc2N1C(=O)Cc1ccccc1 (stereo unspecified) | > 100 µM (inactive) |
| Cc1nn(-c2nc3ccccc3[nH]2)c2c1C(c1ccc(O)cc1)CC(=O)N2 (stereo unspecified) | 25 µM |
| Cc1ccc(C)c(OC2CCN(C(=O)C(C)n3ccnc3)CC2)c1 (stereo unspecified) | > 100 µM (inactive) |
| CN(C)CCN(C)Cc1ccc(Cl)cc1NS(=O)(=O)c1ccc(Cl)c(Cl)c1 | 32 µM |
| Fc1ccc(OC2CC(NCc3cccc4cn[nH]c34)C2)cc1C(F)(F)F (stereo unspecified) | 25 µM |
| Cn1nccc1-c1cc(OC(CN)c2ccccc2)cnc1-c1ccco1 (stereo unspecified) | 50 µM |
| CC(=O)Nc1ccc(-c2csc(NC(=O)c3ccc([N+](=O)[O-])s3)n2)cc1 | 50 µM |
| COc1ccccc1-c1c(C)[nH]c2nc(N)nc(C)c12 | > 100 µM (inactive) |
| Cc1ccccc1CNC(=O)CN(Cc1ccccn1)Cc1ccccn1 | > 160 µM (inactive) |
| COc1ccc(Nc2nc(NC3CCC(O)CC3)ncc2Br)c(C(N)=O)c1 (stereo unspecified) | > 100 µM (inactive) |
| COc1ccc2ncc(Cl)c(CCN3CC[C@H](NCc4cc5c(cn4)OCS5)[C@@H](O)C3)c2n1 | 25 µM |
| Cc1c([N+](=O)[O-])c(C(=O)Nc2sc3c(c2C#N)CCC(C)C3)nn1C (stereo unspecified) | > 100 µM (inactive) |
| Cc1cc(C)n(-c2nc(NC(C)C)nc(NC(C)(C)C)n2)n1 | > 100 µM (inactive) |
| Cc1cc(Nc2cc(C3CC3)[nH]n2)nc(N2CCCC2)n1 | 32 µM |
| CN(Cc1nc2c(C(=O)N3CCN(Cc4ccccc4)CC3)cccc2[nH]1)C1CCCc2cccnc21 (stereo unspecified) | 13 µM |
| CN(C)c1ccc(-c2cc3nccnc3c(OC[C@H]3CCCNC3)n2)cn1 | 63 µM |
| O=C(CCCNC(=O)c1ccc(Cl)cc1)Nc1nc(-c2ccccn2)cs1 | > 100 µM (inactive) |
| O=C(NCC(c1cccs1)N1CCOCC1)c1ccc([N+](=O)[O-])o1 (stereo unspecified) | 20 µM |
| Cc1cccc(N2CCCN(Cc3c[nH]c4ccccc34)CC2)n1 | 13 µM |
| Cc1nc2c(-c3cccs3)c(C)nn2c(NCCO)c1C | > 100 µM (inactive) |
| Clc1ccc(OCCN2CCCCC2c2cccnc2)c(Cl)c1 (stereo unspecified) | 79 µM |
| C[C@@H](Oc1cc(-n2cnc3cc(N)ccc32)sc1C(N)=O)c1ccccc1Cl | 20 µM |

| Structure (SMILES) | IC50 |
| --- | --- |
| Cc1nc(-c2ccncc2)ncc1C(C)NC(=O)c1ccc(Cl)s1 (stereo unspecified) | > 100 µM (inactive) |
| Cc1cc(-c2cccc3ccccc23)nc2nc(N)nc(N)c12 | 50 µM |
| CCCN1CCN(Cc2ccc(S(=O)(=O)Nc3cccc(C)c3)cc2)CC1 | > 100 µM (inactive) |
| Cc1cc(C#N)c([N+](=O)[O-])cc1Br | 32 µM |
| Nc1nccc(-c2csc(Nc3ccc(Cl)cc3)n2)n1 | > 100 µM (inactive) |
| OCCCNc1nc(Nc2ccncc2)nc2ccccc12 | > 100 µM (inactive) |
| O=[N+]([O-])c1cccc(Nc2cncc(-c3ccccc3CO)c2)c1 | > 100 µM (inactive) |
| Cc1cc(N(C)C)nc(Nc2ccccc2C)n1 | 63 µM |
| C[C@@H](Oc1cc(-n2cnc3ccc(CC(O)CO)cc32)sc1C(N)=O)c1ccccc1Cl (stereo partly specified) | > 100 µM (inactive) |
| Cc1nc2nc(C)c(Cc3ccc(C(C)C)cc3)c(=O)n2[nH]1 | > 100 µM (inactive) |
| C=CC[C@@H]1CC=C[C@@H](C)N1C(=O)CCc1nnc(-c2ccc3c(c2)OCO3)o1 | > 100 µM (inactive) |
| CNc1c(C(N)=O)c(-c2ccc3scnc3c2)nn1CC(F)(F)F | > 100 µM (inactive) |
| O=c1[nH]ccc2ccc(-c3ccncc3)cc12 | > 100 µM (inactive) |
| O=C(Cc1ccc2c(c1)CCC2)Nc1n[nH]c(-c2ccccn2)n1 | 50 µM |
| Cc1cccnc1NC(=O)c1cccc(OCc2c(C)noc2C)c1 | > 100 µM (inactive) |
| Cc1ccc2ccc(C(Nc3ccccn3)c3cccnc3)c(O)c2n1 (stereo unspecified) | 20 µM |
| CN(Cc1ccc(C(N)=O)cc1)C(c1ccc(F)cc1)c1cccnc1 (stereo unspecified) | > 100 µM (inactive) |
| N#Cc1cc(-c2ccnc(Nc3cccc(CN4CCOCC4)c3)n2)ccc1NCCN | 50 µM |
| Cn1nccc1NC(=O)Cn1ccc(-c2ccncc2)n1 | > 100 µM (inactive) |
| O=C(O)[C@H]1C[C@@H]1c1ccc(-c2ccc(CN(CCc3ccccn3)C(=O)C3CCC3)cc2)cc1 | > 100 µM (inactive) |
| Cc1ccc(NC(=O)c2ccc(Cl)c(NC(=O)c3ccc([N+](=O)[O-])cc3)c2)cc1 | > 100 µM (inactive) |
| N#Cc1cccc(CNc2ccc(-c3cnn(CC4CC4)c(=O)c3C#N)cc2)c1 | > 100 µM (inactive) |
| O=C(NCCc1ccccn1)C(c1cn[nH]c1)N1CCN(c2ccc(Cl)c(Cl)c2)CC1 (stereo unspecified) | > 100 µM (inactive) |
| CCS(=O)(=O)Nc1ccc(C2=NN(C(=O)c3cccs3)C(c3ccccc3OC)C2)cc1 (stereo unspecified) | > 100 µM (inactive) |
| CCOc1ccccc1C(=O)Nc1nnc(-c2ccc3c(c2)OCO3)s1 | > 100 µM (inactive) |
| COc1ccc(C(=O)N2CCC(Nc3cccnc3)C2)c(OC)n1 (stereo unspecified) | > 100 µM (inactive) |

| Structure (SMILES) | IC50 |
| --- | --- |
| O=C(Nc1ccccc1C(=O)Nc1ccccn1)c1ccco1 | > 100 µM (inactive) |
| CCCCn1nnnc1CSc1nc(C)cc(C)c1C#N | > 100 µM (inactive) |
| CC(C)C[C@H](NC(=O)c1csc(-c2cccs2)n1)C(=O)NC1(C#N)CC1 | > 100 µM (inactive) |
| O=C(Nc1ncc([N+](=O)[O-])s1)C1CC1 | > 100 µM (inactive) |
| NS(=O)(=O)c1ccc(Nc2ncc3cccc(OC4CCNCC4)c3n2)cc1 | > 100 µM (inactive) |
| Cc1c(C(=O)NCCCCn2ccnc2)oc2c(C)cccc12 | 79 µM |
| O=S(=O)(c1cccc(CSc2nnc(-c3ccc4c(c3)OCO4)o2)c1)N1CCOCC1 | > 100 µM (inactive) |
| CC1(C)CCC(=Cc2ccc(Cl)cc2)CC1(O)Cn1ccnc1 (stereo unspecified) | 50 µM |
| COc1cc(-c2nc(N3CCOCC3)sc2-c2ccnc(NC3CCOCC3)n2)ccc1Cl | > 100 µM (inactive) |
| CC(C)C[C@H](NC(=O)c1ccc(-c2ccccc2)o1)C(=O)NC1(C#N)CC1 | > 100 µM (inactive) |
| Cc1c(CNC(=O)c2ccc(Cn3cc(Cl)c([N+](=O)[O-])n3)cc2)cnn1C | > 100 µM (inactive) |
| COc1ccc2ncc(Cl)c(CCN3CC[C@@H](NCc4cc5c(cn4)OCS5)[C@H](O)C3)c2n1 | 50 µM |
| O=C(COc1ccccc1)Nc1ccccc1C(=O)Nc1nccs1 | > 100 µM (inactive) |
| Cc1nc(C(=O)Nc2ccc3c(c2)OCO3)nn1-c1ccc(Cl)cc1 | > 100 µM (inactive) |
| N#Cc1cnc(Nc2cccc(CCN3CCOCC3)c2)nc1Nc1ccccc1C(N)=O | 25 µM |
| Cc1nn(-c2nc(N)nc(-c3ccccn3)n2)c(N)c1-c1ccccc1 | 63 µM |
| NC(=O)c1ccccc1Nc1nc(NC2CCCCC2)nc2[nH]ccc12 | 20 µM |
| CCS(=O)(=O)c1cccc(C(=O)Nc2nc(-c3ccccn3)cs2)c1 | 25 µM |
| CCN(C)Cc1ccc(N2CCC(NS(=O)(=O)c3ccc4c(c3)CCO4)CC2)nc1 | > 100 µM (inactive) |
| COCCn1c(-c2ccc3c(c2)OCO3)cnc1NCc1ccccc1OC | 40 µM |
| NC(=O)c1cc(F)ccc1Nc1nc(NC2CCC(O)CC2)ncc1Br (stereo unspecified) | 50 µM |
| O=C(Nc1nc2ccccc2[nH]1)c1c(O)c2cccc3c2n(c1=O)CC3 | 10 µM |
| Cc1cc(C)n(-c2nc(NC(C)(C)C)nc(N3CCOCC3)n2)n1 | 100 µM |
